Experimental data reported in US20100240589A1, “DIASTEREOMERIC PEPTIDES USEFUL AS INHIBITORS OF MEMBRANE PROTEIN ASSEMBLY” (YEDA RESEARCH AND DEVELOPMENT CO., LTD. AT THE WEIZMANN …, priority 2003, published 2010).
Like-named read-outs stand apart in the source and are kept apart here. Ends that are not written are not given here.

Experiments:
[1] = test system: CP362 containing pNT201
[2] = test system: fusion of HIV-1 gp120-41 expressing TF228 cells with CD4+CXCR4+3T3 mouse fibroblasts; assay: Dye transfer fusion assay (cell-cell fusion); assay type: cell-based; settings: for inhibition of HIV-1 mediated cell-cell fusion: dye transfer, co-culture 2 hours at 37° C.; for inhibition compared with the wild-type peptide: dye transfer fusion assay
Experimental: Peptide inhibition of cell-cell fusion was assayed by monitoring the redistribution of two fluorescent probes: a water-soluble probe and a lipophilic probe, between target and effector cells upon their co-incubation with these probes (Munoz-Barroso I., et al., 1998, J. Cell Biol. 140: 315-323). The HIV-1 gp120-41 expressing TF228 cells (Jonak, Z. L., et al., 1993, AIDS Res. Hum. Retrovir. 9:23-32) were labeled with either calcein or a green fluorescent fatty acid as follows: HIV-1 gp120-41 expressing TF228 cells were incubated with 1 μM calcein for 60 minutes at 37° C., and then washed and resuspended at 10^5 cells/ml in RPMI medium. Alternatively, the HIV-1 gp120-41 expressing TF228 cells were labeled with the fatty acid 4,4-difluoro-5-methyl-4-bora-3a, 4a-diaza-s-indacene-3-dodecanoic acid (C1-BODIPY-C12; (Molecular Probes, Eugene, Oreg.)) as follows: HIV-1 gp120-41 expressing TF228 cells were seeded at 10^5 cells/ml in RPMI medium containing 10 mg/ml of the C1-BODIPY-C12 and grown for three days prior to the experiment. The fatty acid was eventually metabolized into phospholipid, primarily phosphatidylcholine. The cells where then washed and resuspended at 10^5 cells/ml. The target cells, CD4+CXCR4+3T3 mouse fibroblasts, were plated at 10^5 cells/ml the night before the experiment. The next day, the CD4+CXCR4+3T3 cells were labeled with 20 μM [5-(and -6) ((4-Chloromethyl)benzoyl)amino)) tetramethylrhodamine (CMTMR) for one hour at 37° C., washed several times and combined with the effector cells (1:3 target-effector cell ratio). Different concentrations of peptides, dissolved in PBS or Tris buffer, were then added. The cells were co-cultured for 2 hours at 37° C. in 12 well plates (Costar, Cambridge, Mass.). Phase and fluorescent images were collected using an Olympus IX70 coupled to a CCD camera (Princeton Instruments, Trenton, N.J.) with a 20× objective lens. An 82000 optical filter cube (Chroma Technology Corp., Brattleboro, Vt.) was used for the excitation of calcein (494/517), BODIPY (500/510), and CMTMR (541/565). Three images per well were collected and then analyzed using metamorph software (Universal Imaging, WestChester, Pa.) for dye transfer from the donor to the acceptor cell. The scoring of fusion events was conducted as described by Munoz-Barroso et al. (ibid.).

[3] = biological target: wt-fusion peptide (N-terminal 33 segment of gp41) (Human immunodeficiency virus type 1 group M subtype B, UniProt P03377); settings: NBD-wt donor 0.05 μM, Rho acceptor 0.025-0.35 μM, SUV 400 μM
Experimental: The self-association of the peptides in their membrane-bound state was monitored by employing resonance energy transfer measurements. Fluorescence resonance energy transfer was measured using NBD-labeled peptides serving as donors and Rho (rhodamine)-labeled peptides serving as energy acceptors. Fluorescence spectra were obtained at room temperature with excitation set at 467 nm using a 10 nm slit width. In a typical experiment, donor peptide (final concentration 0.04 μM) was added to a dispersion of phosphatidylcholine/cholesterol (PC/Chol; 10:1 w/w) small unilamellar vesicles (SUV; 224 μM) in PBS, followed by the addition of acceptor peptide in several sequential doses. Fluorescence spectra were obtained before and after addition of the acceptor. The efficiency of energy transfer (E) was determined by measuring the decrease in the quantum yield of the donor as a result of the presence of acceptor. E was determined experimentally from the ratio of the fluorescence intensities of the donor in the presence (Ida) and in the absence (Id) of the acceptor, at the donor's maximum emission wavelength. The percentage of transfer efficiency (E), is given by:
The contribution of buffer and vesicles was subtracted from all measurements. […] The acceptor-peptide was added only after the donor-peptide was already bound to the membrane, thus decreasing association in solution. […]

[4] = test system: activated T-cells; assay: Binding of NBD-labeled fusion peptides to T-cells (confocal fluorescence microscopy); assay type: cell-based; parameters: dose or concentration left out as unconfirmed; settings: 30 minutes, room temperature
Experimental: Nitrobenzofurazane (NBD)-labeled wt-fusion peptide or NBD-labeled diastereomeric fusion peptide (herein designated IFFA) were studied for their binding to activated T-cells as follows: Activated T-cells (10,000/ml) were incubated for 30 minutes at room temperature with NBD labeled wt- or IFFA-fusion peptides (0.5 mM final concentration). The cells were washed twice with PBS (100 ml) in order to remove excess of unbound peptide. The cells were then observed under the fluorescent confocal microscope. NBD excitation was at 488 nm with the laser set at 2% power to prevent bleaching of the fluorophore. Fluorescence data was collected from 525 nm and up.

[5] = test system: FHK12 bacterial membrane; assay: Binding of NBD labeled peptide to bacterial membrane (confocal); assay type: cell-based; settings: NBD labeled peptide 500 nM
Experimental: The binding of 2D-GPA to the membrane of the FHK12 bacteria is a prerequisite for the interaction between the peptide and the GPA ToxR construct. In order to verify this binding, the bacteria were observed under a confocal microscope in the absence or presence of a NBD labeled 2D-GPA peptide at a 500 nM concentration. Experiments were done as follows: FHK12 bacteria were diluted 1:10000 and incubated with NBD labeled 2D-GPA, final concentration of 500 nM, for 30 seconds. Samples were fixed with Glutaraldehyde at a final concentration of 0.001% for 30 seconds, centrifuged and washed 3 times with fresh PBS. Confocal images were obtained using an Olympus IX70 FV500 confocal laser-scanning microscope. […] The confocal images were obtained at 12-bit resolution.

[6] = biological target: T1, wt-GPA (Homo sapiens, UniProt P02724); assay: FRET between wt-GPA and diastereomer in LUV; assay type: binding; settings: donor 0.1 μM, acceptor 0.01-0.05 μM, LUV 340 μM
T1 construct: ITLIIFGVMAGVIGT; fluorophore label (NBD); made in house; host or cells: chemical peptide synthesis
Experimental: Wild type (wt)-GPA and the 2D-GPA analog were synthetically labeled with Rhodamine and NBD, respectively, and fluorescent resonance energy transfer (FRET) experiments were performed with NBD-labeled peptides serving as energy donors and Rhodamine-labeled peptides serving as energy acceptors. […] In a typical experiment, a donor peptide (final concentration 0.1 μM) was added to a dispersion of large unilamellar vesicles (LUV; 340 μM) in PBS. This was followed by the addition of an acceptor peptide in increasing doses ranging from 0.01 to 0.05 μM. At this peptide to lipid ratios, complete membrane binding is expected for all the transmembrane peptides. […] The percentage of transfer efficiency (E), is given by:
The R0 for this pair of donor-acceptor fluorophores is around 51 Å.

[7] = test system: ToxR GPA construct in FHK12 bacteria; assay: ToxR receptor expression levels (Western blot); assay type: cell-based; settings: anti maltose binding protein
Experimental: Bacteria FHK12 cells were grown in the presence or absence of 2D-GPA, 10 μl samples were added to 2× sample buffer and boiled for 5 minutes. The samples were separated on a 12% SDS-PAGE and thereafter were blotted. The primary antibody used was anti maltose binding protein. The detection was performed with Phototope-HRP Western Blot Detection System (Cell Signaling Technology, MA, USA).

[8] = test system: ToxR GPA (GPA transmembrane domain); assay: ToxR GPA heterodimer formation (β-galactosidase reporter); assay type: cell-based
Experimental: The ToxR GPA plasmid construct is a simple and robust method for detecting homodimerization of transmembrane domains in vivo (Langosch, D., et al., 1996, J. Mol. Biol. 263: 525-530). The detection is done through the signal of a β-galactosidase reporter gene. Heterodimerization can be detected through addition of an exogenous peptide. […] The 2D-GPA peptide of SEQ ID NO:11 was exogenously added to the system in increasing doses (0.5-20 μM; FIG. 5). […] The inhibition was calculated as follows: I is the inhibitory ability of the peptide, Apeptide is the activity of ToxR-GPA in the presence of the peptide, Amax is the maximal activity of ToxR-GPA without peptide, and Abaseline is the baseline activity of the monomer A16 plasmid, a plasmid containing a peptide which consists of 16 amino acids all of which are alanine (Langosch, D., et al., 1996, J. Mol. Biol. 263: 525-530).
IC50 was calculated by fitting normalized data to the Langmuir equation (equation 3) in the Origin 6.0 commercial program.
Were A represents ToxR-GPA transcription factor, B represents the exogenous peptide, I represents inhibition of beta-galactosidase activity (1-activity) and K is a scaling constant.

[9] = biological target: Tar-1 all-L NBD peptide (Escherichia coli, UniProt P07017); settings: donor Tar-1 all-L NBD peptide; acceptor-to-lipid ratio of 1:7500; PE/PG SUV
Experimental: To investigate the direct interaction between the two enantiomers of Tar-1 in an isolated in vitro system, fluorescence energy transfer (FRET) between fluorescently labeled Tar-1 wild-type peptide and its diastereomeric analog was measured. The assay was performed in a model lipid environment of small unilamellar vesicles (SUV) composed of negatively charged PE/PG lipids (7:3 w/w). This phospholipid composition is typical of the E. coli inner membrane. The Tar-1 peptides were labeled with NBD as the donor fluorophore or rhodamine-TAMRA as the acceptor fluorophore, and FRET was measured.

[10] = test system: Tar-1 TM domain (ToxR-MalE chimera); settings: different concentrations of exogenous peptide, FIG. 9
Excerpt: The ToxR transcription activator can be used successfully to assess weak protein-protein interactions within the E. coli membrane. A Tar-1 TM domain encoding the DNA cassette was grafted between the ToxR transcription activator and the maltose binding protein in the ToxR-MalE plasmid. The plasmid was then transformed into E. coli FHK12 cells, which contain β-galactosidase, under the control of a ctx promoter. Dimerization of the TM domains, in this system, results in association and activation of the ToxR transcription activator, which then becomes active and is able to bind the ctx promoter. Quantification of the amount of homo-dimerization was done by measuring the activity of the β-galactosidase reporter gene and by normalizing it to the cell content (OD590) (miller units)
The ability of the Tar-1 peptides to disrupt the proper dimerization of the wild-type transmembrane (TM) domain was thus investigated by using the ToxR system. This TM assembly system can assess the dimerization of a specific TM domain grafted between the ToxR transcription activator and the maltose binding protein, MalE. […] The TM-TM interactions were monitored by measuring the activity of β-galactosidase in the presence of different concentrations of exogenous Tar-1 analog peptides.

[11] = test system: HIV1 gp41 mediated viral fusion; settings: literature; cited from earlier work

O=C(N[C@H](CO)[C@H](O)c1ccc([N+](=O)[O-])cc1)C(Cl)Cl [chloramphenicol]
cell density (growth) of the bacteria [1]: zero growth

AVGIGALF [8-mer wild-type control peptide, reference compound]
inhibition of HIV-1 mediated cell-cell fusion [2]: completely devoid of inhibitory effect

AVGIGALFLGFLG [reference compound]
inhibition of HIV-1 mediated cell-cell fusion [2]: completely devoid of inhibitory activity

AVGIGALFLGFLGAAGSTMGARSMTLTVQARQL [IFFA]
association with wt-fusion peptide (energy transfer) [3]: associate with the wt-fusion peptide | concentration showing significant inhibitory effect on cell-fusion ([2]; FIG. 2): 10 ng/mL | inhibition compared with the wild-type peptide [2]: identical to that of the wild-type (wt) fusion peptide

AVGIGALFLGFLGAAGSTMGARSMTLTVQARQL [wt-fusion peptide]
binding to T-cells [4]: high affinity binding to T-cells

D-L^669, W^670-DP178 [[D-LW]-DP178]
inhibition compared with the wild-type peptide [2]: more active than the wild-type DP178 | inhibition of HIV-1 mediated cell-cell fusion [2]: inhibited the fusion

D-S^649, Q^650-DP178 [[D-SQ]-DP178]
inhibition of HIV-1 mediated cell-cell fusion [2]: completely inactive

FFGAVIGTIALGVATSAQITAGIALAEAREAKR [fusion peptide of Sendai virus, reference compound]
inhibition of HIV-1 mediated cell-cell fusion [2]: completely devoid of inhibitory activity

ITLIIFGVMAGVIGT [2D-GPA, GPA transmembrane domain analog, L-valines at positions 80 and 84 replaced by their D-enantiomer]
localization in FHK12 bacteria [5]: localized in the bacterial membrane | fluorescence energy transfer with wt-GPA [6]: fluorescence energy transfer increased | effect on expression levels of the ToxR GPA construct [7]: no significant differences were detected | inhibition of ToxR GPA homodimer signal ([8]; exogenous peptide 0.5-20 μM): concentration dependent inhibitory effect | IC50 ([8]; extrapolated from the fit to Langmuir equation, read-out: IC50 of the interaction with the integral GPA transmembrane domain): 290 nM

KKITLIIFGVMAGVIGT (also: D-amino acids, which not given here) [SEQ ID NO:12, another diastereomeric GPA peptide]
effect on expression levels of the ToxR GPA construct [7]: did not affect the expression levels

KKITLIIFGVMAGVIGT [all L GPA, reference compound]
IC50 ([8]; previous all L and all D GPA results fitted to this model, read-out: IC50 of the interaction with the GPA transmembrane domain): 360 nM

KKKMVLGVFALLQLISGSLKK (KKKMVLGVFALLQLISGSLKK-NH2; also: D-amino acids, which not given here) [Tar-1 diastereomer]
energy transfer [9]: about 30% | inhibition of Tar-1 TM domain dimerization (β-galactosidase activity) [10]: interfered with the proper dimerization

KKKMVLGVFALLQLISGSLKK [Tar-1 all-L, reference compound]
inhibition of Tar-1 TM domain dimerization (β-galactosidase activity) ([10]; listed as Tar-1 all-L peptide): inhibition profile similar to its diastereomeric counterpart

enfuvirtide
inhibition of viral fusion [11]: competent inhibitors of viral fusion
